Results taken from US7405230B2, “Phosphodiesterase 4 inhibitors, including N-substituted aniline and diphenylamine analogs” (Memory Pharmaceuticals Corporation, priority 2002, dated 2008).

Columns and labels:
[1] = test system: Rats; assay: Passive avoidance in rats, an in vivo test for learning and memory (reversal of MK-801 amnesia); parameters: species or system rat (Male Spraque-Dawley (Harlan)); conditions: MK-801 0.1 mg/kg pretreatment, 24 hours after electric shock, compared to the vehicle (p<0.001)
Method: The test was performed as previously described (Zhang, H.-T., Crissman, A. M., Dorairaj, N. R., Chandler, L. J., and O'Donnell, J. M., Neuropsychopharmacology, 2000, 23, 198-204.). The apparatus (Model E10-16SC, Coulbourn Instruments, Allentown, Pa.) consisted of a two-compartment chamber with an illuminated compartment connected to a darkened compartment by a guillotine door. The floor of the darkened compartment consisted of stainless steel rods through which an electric foot-shock could be delivered from a constant current source. All experimental groups were first habituated to the apparatus the day before the start of the experiment. […] The latency for entering the darkened compartment was recorded. […] Twenty-four hours later, the rat was administered 0.1 mg/kg MK-801 or saline, 30 minutes prior to the injection of saline or test compound (dosed from […], which was 30 minutes before the retention test started. The rat was again placed in the illuminated compartment with the guillotine door open. The latency for entering the darkened compartment was recorded for up to 180 seconds, at which time the trial was terminated.
(§1) All data were analyzed by analyses of variance (ANOVA); individual comparisons were made using Kewman-Keuls tests. […]

[2] = test system: Rats; assay: Radial arm maze task in rats, an in vivo test for learning and memory (reversal of MK-801 amnesia); parameters: species or system rat (male Spraque-Dawley (Harlan)); conditions: MK-801 0.1 mg/kg, i.p., compared to control (p<0.01)
Method: The test was performed as previously described (Zhang, H.-T., Crissman, A. M., Dorairaj, N. R., Chandler, L. J., and O'Donnell, J. M., Neuropsychopharmacology, 2000, 23, 198-204.). Five days after initial housing, rats (male Spraque-Dawley (Harlan) weighing 250 to 350 g) were placed in the eight-arm radial maze (each arm was 60×10×12 cm high; the maze was elevated 70 cm above the floor) for acclimation for two days. Rats were then placed individually in the center of the maze for 5 minutes with food pellets placed close to the food wells, and then, the next day, in the wells at the end of the arms; 2 sessions a day were conducted. Next, four randomly selected arms were then baited with one pellet of food each. The rat was restricted to the center platform (26 cm in diameter) for 15 seconds and then allowed to move freely throughout the maze until it collected all pellets of food or 10 minutes passed, whichever came first. Four parameters were recorded: 1) working memory errors, i.e., entries into baited arms that had already been visited during the same trial; 2) reference memory errors, i.e., entries into unbaited arms; 3) total arm entries; and 4) the test duration (seconds), i.e., the time spent in the collection of all the pellets in the maze. […]
as §1

C[C@]12N[C@H](Cc3ccccc31)c1ccccc12 [MK-801]
Latency for entering the darkened compartment [1]: markedly reduced this latency | Frequencies of working and reference memory errors [2]: increased the frequencies of both working and reference memory errors
